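Step 1: Grow cells in 96-well plates. Step 2: Expose to compound for 48 hours at 5 concentrations. Step 3: Interpolate endpoints linearly; if unreached, use highest concentration. GI50: concentration for 50% inhibition of growth. TGI marks complete inhibition of growth.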
How the values were obtained:
Assay in all cases: NCI tumour cell line growth inhibition, 48 h
SK-OV-3 ovarian = test system: SK-OV-3 ovarian
MALME-3M melanoma = test system: MALME-3M melanoma
A498 renal = test system: A498 renal
SK-MEL-2 melanoma = test system: SK-MEL-2 melanoma
RXF 393 renal = test system: RXF 393 renal
DU-145 prostate = test system: DU-145 prostate
SF-539 CNS = test system: SF-539 CNS
NCI-H522 lung = test system: NCI-H522 lung
HL-60(TB) leukemia = test system: HL-60(TB) leukemia
SNB-19 CNS = test system: SNB-19 CNS
SR leukemia = test system: SR leukemia
CAKI-1 renal = test system: CAKI-1 renal
OVCAR-8 ovarian = test system: OVCAR-8 ovarian
MCF7 breast = test system: MCF7 breast
OVCAR-4 ovarian = test system: OVCAR-4 ovarian
UACC-62 melanoma = test system: UACC-62 melanoma
K-562 leukemia = test system: K-562 leukemia
HCT-15 colon = test system: HCT-15 colon
NCI/ADR-RES ovarian = test system: NCI/ADR-RES ovarian
CCRF-CEM leukemia = test system: CCRF-CEM leukemia
HT29 colon = test system: HT29 colon
OVCAR-5 ovarian = test system: OVCAR-5 ovarian
SK-MEL-5 melanoma = test system: SK-MEL-5 melanoma
BT-549 breast = test system: BT-549 breast
HCT-116 colon = test system: HCT-116 colon
EKVX NSCLC = test system: EKVX NSCLC
LOX IMVI melanoma = test system: LOX IMVI melanoma
786-0 renal = test system: 786-0 renal
KM12 colon = test system: KM12 colon

**Q.** Which results are given for `CC1=C(C#N)C(/C=C(\Cl)c2ccc(F)cc2)C(C#N)=C(C)N1`?
**A.** GI50 (SK-OV-3 ovarian): > 100 µM; TGI (SK-OV-3 ovarian): > 100 µM; GI50 (MALME-3M melanoma): > 100 µM; TGI (MALME-3M melanoma): > 100 µM; GI50 (A498 renal): > 100 µM; TGI (A498 renal): > 100 µM; GI50 (SK-MEL-2 melanoma): > 100 µM; TGI (SK-MEL-2 melanoma): > 100 µM; GI50 (RXF 393 renal): > 100 µM; TGI (RXF 393 renal): > 100 µM; GI50 (DU-145 prostate): > 100 µM; TGI (DU-145 prostate): > 100 µM; GI50 (SF-539 CNS): > 100 µM; TGI (SF-539 CNS): > 100 µM; GI50 (NCI-H522 lung): > 100 µM; TGI (NCI-H522 lung): > 100 µM; GI50 (HL-60(TB) leukemia): 74 µM; TGI (HL-60(TB) leukemia): > 100 µM; GI50 (SNB-19 CNS): > 100 µM; TGI (SNB-19 CNS): > 100 µM; GI50 (SR leukemia): > 100 µM; TGI (SR leukemia): > 100 µM; GI50 (CAKI-1 renal): > 100 µM; TGI (CAKI-1 renal): > 100 µM; GI50 (OVCAR-8 ovarian): > 100 µM; TGI (OVCAR-8 ovarian): > 100 µM; GI50 (MCF7 breast): > 100 µM; TGI (MCF7 breast): > 100 µM; GI50 (OVCAR-4 ovarian): > 100 µM; TGI (OVCAR-4 ovarian): > 100 µM; GI50 (UACC-62 melanoma): 81 µM; TGI (UACC-62 melanoma): > 100 µM; GI50 (K-562 leukemia): > 100 µM; TGI (K-562 leukemia): > 100 µM; GI50 (HCT-15 colon): > 100 µM; TGI (HCT-15 colon): > 100 µM; GI50 (NCI/ADR-RES ovarian): > 100 µM; TGI (NCI/ADR-RES ovarian): > 100 µM; GI50 (CCRF-CEM leukemia): > 100 µM; TGI (CCRF-CEM leukemia): > 100 µM; GI50 (HT29 colon): > 100 µM; TGI (HT29 colon): > 100 µM; GI50 (OVCAR-5 ovarian): > 100 µM; TGI (OVCAR-5 ovarian): > 100 µM; GI50 (SK-MEL-5 melanoma): > 100 µM; TGI (SK-MEL-5 melanoma): > 100 µM; GI50 (BT-549 breast): > 100 µM; TGI (BT-549 breast): > 100 µM; GI50 (HCT-116 colon): > 100 µM; TGI (HCT-116 colon): > 100 µM; GI50 (EKVX NSCLC): > 100 µM; TGI (EKVX NSCLC): > 100 µM; GI50 (LOX IMVI melanoma): > 100 µM; TGI (LOX IMVI melanoma): > 100 µM; GI50 (786-0 renal): > 100 µM; TGI (786-0 renal): > 100 µM; GI50 (KM12 colon): > 100 µM
